Results from patent US20250179028A1, “ACRYLAMIDE COMPOUNDS” (NRG THERAPEUTICS LTD, priority 2022, published 2025).
Converted amounts (≈) assume the structure as drawn. Read-outs that look alike come from different tables or passages of the source.

Tests used:
[1] = test system: mPTP; test: mPTP activity (Ca2+ retention) assay in isolated rat liver mitochondria; type: biochemical; conditions: for mPTP Rat liver pIC50: isolated rat liver mitochondria, average value from multiple experiments (n ≥ 2)
Method in brief: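 Freshly isolated female Sprague Dawley rat liver mitochondria were energised with succinate and rotenone in pH 7.4 buffer with Fluo5N, then pre-incubated 10 min at RT with compound (30 μM to 1 nM final) before a 75 μM CaCl2 bolus. The IC50 used 10-min fluorescence, normalised to DMSO and 5 μM cyclosporin A.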

[2] = test system: mPTP; test: mPTP activity assay in isolated rat brain mitochondria; type: biochemical; conditions: for mPTP Rat brain pIC50: isolated rat brain mitochondria
Procedure: mPTP activity was measured in brain mitochondria freshly isolated from female Sprague Dawley (250 to 300 gram) rats. Anaesthetised rats were perfused in-situ with ˜40 ml cold Dulbecco's Phosphate Buffered Saline (DPBS), then brains dissected and transferred into 30 ml Isolation Buffer (225 mM mannitol, 75 mM sucrose, 1 mM EGTA, adjusted to pH 7.4 with 1 M NaOH). The brain was minced using tweezers and a scalpel into ˜5 mm pieces then transferred into a 50 ml Potterton Dounce homogenization tube on ice containing 10 ml ice-cold isolation buffer (as above with addition of Complete Protease inhibitor; 1 tablet per 50 ml buffer).
Homogenisation was carried out using a […] pestle at 1800 rpm. The slurry was centrifuged at 2000 g for 10 min at 4° C., then the supernatant centrifuged at 12,000 g for 9 min. The pellet was resuspended with a dounce homogeniser in isolation buffer as above but with the addition of 0.02% digitonin, centrifuged at 12,000 g for 11 min and finally resuspended in 5 ml modified isolation buffer (as above but with EGTA reduced to 0.1 mM).
Test compounds were prepared in 384 well polypropylene assay plates as described above for the liver mitochondria assay. A stock mitochondria/Fluo5N assay solution was prepared in 5.6 ml assay buffer (120 mM mannitol, 40 mM MOPS, 5 mM KH2PO4, 60 mM KCl, 10 mM pyruvate, 2 mM malate, 2 mM MgCl2, 20 μM ADP, 1.26 μM oligomycin A, adjusted to pH 7.4) supplemented with Fluo5N pentapotassium salt (2 μM) and 1 ml mitochondria suspension, then transferred (15 μl) into the assay plate containing test compounds and incubated for 10 min at RT. Assay plates were then transferred to a FLIPR Tetra plate reader (Molecular Devices). Dye fluorescence was then measured every 3 sec for a total of 10 min. After 12 sec, a 2.5 μl bolus of Ca2+ (75 μM) was added from a source plate containing 675 μM CaCl2) in FLIPR assay buffer. IC50 values for test compounds were calculated using the fluorescence value collected at the 10 min timepoint with % inhibition calculated using the DMSO control and cyclosporin A values at […].

[3] = Hepatocyte clearance assay, human; type: in vitro ADME; conditions: cryopreserved primary human hepatocytes, average value from two experiments, read-out: Human heps Clint
Procedure: (§1) In vitro clearance studies were performed in primary rat and human hepatocytes (BiolVT). Vials of cryopreserved rat or human hepatocytes were thawed in a 37° C. water bath for 2 min. Cells were transferred into thawing medium (Williams' Medium E containing 30% Percoll, 1×GlutaMAX-1, 15 mM HEPES, 5% fetal bovine serum (FBS), 4 μg/ml insulin, 1 μM dexamethasone), centrifuged at 100 g for 10 min then resuspended in culture medium (Leibovitz's L-15 Medium) at a concentration of 0.5×10^6 viable cells/mL (number of viable cells assessed using AO/PI staining). Hepatocytes (198 μL) were transferred into wells of a 96-well non-coated plate and placed in a 37° C. incubator for 10 min. Test compound solutions were prepared from 10 mM stocks in DMSO, diluted to 100 μM in 50% (v/v in water) acetonitrile. Test compound samples (2 μl) were added to each well of hepatocytes and incubated at 37° C. Samples (25 μl) were collected at t=0, 15, 30, […] and 120 min, mixed with 6 volumes (150 μl) of acetonitrile containing internal standard (100 nM alprazolam, 200 nM caffeine and 100 nM tolbutamide), vortexed for 5 min and centrifuged for 45 min at 3220 g. An aliquot of supernatant (100 μL) was diluted with 100 μL ultra-pure water, and the mixture was used for LC/MS/MS analysis. All incubations were performed in duplicate. Peak areas were determined from extracted ion chromatograms. The slope value, k, was determined by linear regression of the natural logarithm of the remaining percentage of the parent drug vs. incubation time curve. The in vitro half-life (in vitro t½) was determined from the slope value: in vitro t½=0.693/k. Conversion of the in vitro t½ (in min) into the in vitro intrinsic clearance (in vitro CLint, in μL/min/1×10^6 cells) was done using the following equation (mean of duplicate determinations):
(§2) [formula] • V=incubation volume (0.2 mL) • N=number of hepatocytes per well (0.1×10^6 cells).

[4] = Hepatocyte clearance assay, rat; type: in vitro ADME; conditions: cryopreserved primary rat hepatocytes, average value from two experiments, read-out: Rat heps Clint
Procedure: as §1, §2

[5] = PBS and FaSSIF solubility; type: physicochemical; conditions: kinetic from dmso stock
Procedure: Test compounds were prepared as 10 mM stocks in DMSO and 15 μl samples transferred in duplicate into 1.5 mL glass flat bottom vials (BioTech Solutions). Fasted state simulated intestinal fluid (FaSSIF) or PBS (pH 7.4) was added to each vial to final volume of 500 μl. One PTFE encapsulated stir stick (V&P Scientific) was placed in each vial before sealing with PTFE/SIL plugs (BioTech Solutions). Vials were shaken at 1100 rpm for 2 hr at 25° C. Samples were then filtered through MultiScreen Solvinert filter plates (Millipore) via vacuum filtration. Aliquots of filtrate (5 μl) plus 5 μl DMSO were diluted in 490 μl 50% acetonitrile in water containing internal standard. The filtrate was analysed and quantified against a standard of known concentration using LC-MS/MS. Solubility values of the test compound and control compound were calculated as follows: […]

[6] = target: CYP2D6 (Homo sapiens (Human), UniProt P10635); test: Cytochrome P450 CYP2D6 inhibition in human liver microsomes; type: in vitro ADME; conditions: probe dextromethorphan 2 µM (dextrorphan formation); 1 uM test compound, human liver microsomes; average value from two experiments; negative values = no effective inhibition
CYP2D6, sequence (P10635 whole entry): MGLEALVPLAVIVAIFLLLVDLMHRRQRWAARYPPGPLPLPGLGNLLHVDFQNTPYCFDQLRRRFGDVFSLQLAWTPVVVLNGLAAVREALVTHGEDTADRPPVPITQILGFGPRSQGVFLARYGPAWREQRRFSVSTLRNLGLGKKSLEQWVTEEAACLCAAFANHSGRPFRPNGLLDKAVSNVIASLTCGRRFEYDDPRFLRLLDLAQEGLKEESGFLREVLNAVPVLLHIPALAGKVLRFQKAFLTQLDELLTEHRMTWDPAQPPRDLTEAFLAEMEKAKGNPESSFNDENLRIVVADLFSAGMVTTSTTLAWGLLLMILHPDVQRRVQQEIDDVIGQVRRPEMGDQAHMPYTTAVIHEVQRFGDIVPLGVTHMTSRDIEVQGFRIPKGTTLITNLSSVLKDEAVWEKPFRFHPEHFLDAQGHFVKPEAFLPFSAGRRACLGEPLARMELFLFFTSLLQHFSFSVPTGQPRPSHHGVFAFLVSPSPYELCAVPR
Method in brief: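 Human liver microsomes (0.2 mg/mL) with 2 μM dextromethorphan in 100 mM PBS, test compound at 1 μM or 0.1-30 μM, 15 min preincubation then NADPH-started reaction for 20 min at 37° C, in duplicate. Dextrorphan formation by UPLC-MS/MS; IC50 from % decrease versus uninhibited control.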

[7] = fasted state simulated intestinal fluid (FaSSIF), fassif, Fasted state simulated intestinal fluid, 2 hr at 25° C., read-out: Solubility FaSSIF

| Compound | mPTP Rat liver pIC50 [1] | mPTP Rat brain pIC50 [2] | solubility at 2 h [5, 7] | also measured |
| --- | --- | --- | --- | --- |
| Cc1c(F)cccc1NC(=O)/C=C/c1ccc2c(C#N)n[nH]c2c1 [Example 51, (E)-3-(3-cyano-1H-indazol-6-yl)-N-(3-fluoro-2-methylphenyl)acrylamide] | 7.9 | 8.3 | – | activity in the rat liver mitochondria assay (in words) [1]: highest activity; hepatocyte CLint at 1 µM [3]: 11 µL/min/1e6 cells; activity in the rat brain mitochondria assay (in words) [2]: highest activity; hepatocyte CLint at 1 µM [4]: 48.1 µL/min/1e6 cells |
| COc1cc(C)c(NC(=O)/C=C/c2ccc3c(F)n[nH]c3c2)c(C)n1 [Example 93, (2E)-3-(3-fluoro-1H-indazol-6-yl)-N-(6-methoxy-2,4-dimethylpyridin-3-yl) prop-2-enamide] | 7.6 | 6.8 | 151 µM (≈ 51.4 µg/mL) | – |
| COc1cc(C)c(NC(=O)/C=C/c2cc3[nH]nc(F)c3cc2F)c(C)n1 [Example 97, (2E)-3-(3,5-difluoro-1H-indazol-6-yl)-N-(6-methoxy-2,4-dimethylpyridin-3-yl)prop-2-enamide] | 7.5 | 7.5 | 35 µM (≈ 12.5 µg/mL) | – |
| COc1cc(C)c(NC(=O)/C=C/c2ccc3c(C#N)n[nH]c3c2)c(C)n1 [Example 94, (2E)-3-(3-cyano-1H-indazol-6-yl)-N-(6-methoxy-2,4-dimethylpyridin-3-yl)prop-2-enamide] | 7.5 | 7.4 | 43 µM (≈ 14.9 µg/mL) | – |
| Cc1n[nH]c2cc(/C=C/C(=O)N[C@H]3c4ccccc4C[C@@H]3OCC3COC3)ccc12 [Example 66, (E)-3-(3-methyl-1H-indazol-6-yl)-N-((1S,2S)-2-(oxetan-3-ylmethoxy)-2,3-dihydro-1H-inden-1-yl)acrylamide] | 7.2 | 7.3 | – | hepatocyte CLint at 1 µM [3]: 25.4 µL/min/1e6 cells; hepatocyte CLint at 1 µM [4]: 36.1 µL/min/1e6 cells |
| CO[C@H]1Cc2ccccc2[C@@H]1NC(=O)/C=C/c1ccc2c(C#N)n[nH]c2c1 [Example 74, (E)-3-(3-cyano-1H-indazol-6-yl)-N-((1S,2S)-2-methoxy-2,3-dihydro-1H-inden-1-yl)acrylamide] | 8.0 | 8.0 | – | solubility at 2 h ([5]; aqueous buffer, PBS pH 7.4, 2 hr at 25° C., read-out: Solubility PBS (pH 7.4)): 1.2 µM (≈ 0.43 µg/mL); inhibition at 20 min, 1 µM [6]: 7.5% |
| COc1cc(C)c(NC(=O)/C=C/c2ccc3c(C)n[nH]c3c2)c(C)n1 [Example 91, (2E)-N-(6-methoxy-2,4-dimethylpyridin-3-yl)-3-(3-methyl-1H-indazol-6-yl)prop-2-enamide] | 6.2 | 7.2 | 86 µM (≈ 28.9 µg/mL) | – |
| Cc1n[nH]c2cc(/C=C/C(=O)N[C@H]3c4ccccc4C[C@@H]3OCC3CC3)ccc12 [Example 67, (E)-N-((1S,2S)-2-(cyclopropylmethoxy)-2,3-dihydro-1H-inden-1-yl)-3-(3-methyl-1H-indazol-6-yl)acrylamide] | 7.2 | 7.3 | – | hepatocyte CLint at 1 µM [3]: 42.1 µL/min/1e6 cells; hepatocyte CLint at 1 µM [4]: 73.3 µL/min/1e6 cells |
| Cc1n[nH]c2cc(/C=C/C(=O)N[C@H]3c4ccccc4OC[C@@H]3C)ccc12 [Example 65c, (E)-3-(3-methyl-1H-indazol-6-yl)-N-((3R,4R)-3-methylchroman-4-yl)acrylamide] | 7.7 | 7.8 | – | – |
| CO[C@H]1Cc2ccccc2[C@@H]1NC(=O)/C=C/c1ccc2c(C3CC3)n[nH]c2c1 [Example 70, (E)-3-(3-cyclopropyl-1H-indazol-6-yl)-N-((1S,2S)-2-methoxy-2,3-dihydro-1H-inden-1-yl)acrylamide] | 7.5 | – | 18.4 µM (≈ 6.87 µg/mL) | hepatocyte CLint at 1 µM [3]: 24.6 µL/min/1e6 cells; inhibition at 20 min, 1 µM [6]: 7.5%; hepatocyte CLint at 1 µM [4]: 70.1 µL/min/1e6 cells |

Further lines, with some results ahead:

| mPTP Rat liver pIC50 [1] | mPTP Rat brain pIC50 [2] | solubility at 2 h [5, 7] | Compound | also measured |
| --- | --- | --- | --- | --- |
| 7.8 | 7.6 | – | Cc1ncc(F)c(C)c1NC(=O)/C=C/c1ccc2c(F)n[nH]c2c1 [Example 108, (2E)-3-(3-fluoro-1H-indazol-6-yl)-N-(5-fluoro-2,4-dimethylpyridin-3-yl)prop-2-enamide] | – |
| 8.1 | 8.1 | – | Cc1ncc(F)c(C)c1NC(=O)/C=C/c1cc2[nH]nc(F)c2cc1F [Example 111, (2E)-3-(3,5-difluoro-1H-indazol-6-yl)-N-(5-fluoro-2,4-dimethylpyridin-3-yl)prop-2-enamide] | – |
| 6.5 | 6.2 | – | Cc1ccnc(C)c1NC(=O)/C=C/c1ccc2c(C)n[nH]c2c1 [Example 116, (2E)-N-(2,4-dimethylpyridin-3-yl)-3-(3-methyl-1H-indazol-6-yl)prop-2-enamide] | – |
| 8.2 | 8.2 | – | Cc1ncc(F)c(C)c1NC(=O)/C=C/c1ccc2c(Cl)n[nH]c2c1 [Example 112, (2E)-3-(3-chloro-1H-indazol-6-yl)-N-(5-fluoro-2,4-dimethylpyridin-3-yl)prop-2-enamide] | – |
| 8.1 | 8.0 | – | Cc1ncc(F)c(C)c1NC(=O)/C=C/c1cc2[nH]nc(C)c2cc1F [Example 107, (2E)-N-(5-fluoro-2,4-dimethylpyridin-3-yl)-3-(5-fluoro-3-methyl-1H-indazol-6-yl)prop-2-enamide] | – |
| 6.6 | 5.9 | 86 µM (≈ 30.5 µg/mL) | COCc1c(F)cnc(C)c1NC(=O)/C=C/c1ccc2c(C)n[nH]c2c1 [Example 117, (2E)-N-[5-fluoro-4-(methoxymethyl)-2-methylpyridin-3-yl]-3-(3-methyl-1H-indazol-6-yl)prop-2-enamide] | hepatocyte CLint at 1 µM [3]: 3 µL/min/1e6 cells |
| 6.2 | 5.7 | – | Cc1ncccc1NC(=O)/C=C/c1ccc2c(C)n[nH]c2c1 [Example 115, (2E)-3-(3-methyl-1H-indazol-6-yl)-N-(2-methylpyridin-3-yl)prop-2-enamide] | – |
